Source: US20090163442A1, “TREATMENT OF CANCER WITH 2-DEOXYGALACTOSE” (priority 2007, published 2009)
Several values for one entry are separate records, joined by “and”; a condition that tells them apart may be missing. Equal entries are not always repeated.

Key:
[1] = tested on: tumor cell lines and types; settings: Laszlo et al. 1958; cited from earlier work
tumor = settings: cited from earlier work; for survival time / tumor growth: animal studies, Laszlo et al. 1960
[2] = tested on: hepatocellular carcinoma cell lines; assay: Sulforhodamine B (SRB) growth inhibition assay; type: cell-based, Human; settings: continuous treatment 72 h
Description: The cells are cultured at 37 degrees C. in a humidified atmosphere containing 5% CO2. For passaging, cells grown in 75 cm2 flasks (6070% confluency) are washed with PBS and dissolved from the flasks with trypsin (Gibco BRL) before being plated. Ten thousand cells are plated into each well of a 96-well microtiter plate in 100 ul of medium. The cells are then incubated for 24 h at 37 degrees C. in a humidified atmosphere containing 5% CO2 prior to exposure to the 2-DG analog or other anti-cancer agent. Cultures are treated with a range of concentrations of 2-DGaI or a 2-DGaI analog solubilized in cell culture medium, diluted 100× to the desired concentration, continuously for 72 h. Docetaxel (Taxotere™, Aventis Pharmaceuticals, Inc.) solubilized in 100% DMSO and diluted 1000× to the desired concentration, is used as a positive control. The sulforhodamine B (SRB) assay, a dye-based method for determining cell number by virtue of SRB binding to basic amino acids of cellular macromolecules, is employed to assess the growth inhibitory activity of 2-DGal or a 2-DGal analog.

[3] = tested on: liver tumor serially passaged in nude mice; assay: Tumor growth delay study in a mouse xenograft model; type: in vivo; settings: in combination with cisplatin (1 mg/kg i.p. days 1 to 5); 750 mg/kg orally twice daily; versus cisplatin alone
From the text: The efficacy of 2-DGaI or a 2-DGaI analog in combination with cisplatin can be compared with cisplatin alone in a tumor growth delay study in a mouse xenograft model. Small pieces of tumor, such as a liver tumor serially passaged in nude mice, are implanted subcutaneously in nude mice, and the tumors allowed to grow to 25 mm^2. Mice are then randomized to receive no treatment, treatment with 2-DGal or a 2-DGal analog alone, treatment with cisplatin alone, or treatment with both 2-DGal or a 2-DGaI analog and cisplatin. Cisplatin is dosed i.p. at 1 mg/kg on days 1 to 5.2-DGaI or a 2-DGaI analog is dosed orally at 750 mg/kg, twice daily, for the duration of the experiment. Each mouse is sacrificed when its tumor volume reaches 1000 mg.

CD 1 mice = assay: Liver toxicity study of 2-Fluoro-2-deoxygalactose, serum chemistry and clinical observations; type: in vivo; settings: for Alt (alanine aminotransferase) / Ast (aspartate aminotransferase) / Tbili (total bilirubin): about 0.2 ml, male CD-1 mice, Day 2, individual animals
Description: The objective of this study was to evaluate the liver toxicity of 2-Fluoro-2-deoxygalactose when administered via intraperitoneal or intravenous injection to CD 1 mice. The study was initiated on Jan. 11, 2007, and consisted of three groups with three (3) male mice per group. On Day 1, each mouse GROUP was administered either about 0.2 ml of 10% 2 Fluoro 2 Deoxygalactose, intraperitoneally, about 0.2 ml of 10% 2 Fluoro 2 Deoxygalactose, intravenously, or about 0.2 ml of sterile 0.9% sodium chloride for injection, USP, intravenously. Criteria for evaluation included clinical observations and limited serum chemistry parameters (alanine aminotransferase [ALT], aspartate aminotransferase [AST], and total bilirubin). On Day 2, all animals were euthanized, blood was collected, and livers were collected and stored for potential histopathological evaluation.
Clinical observations were performed at least once daily.

normal liver tissue = assay: Uptake of 2-Fluoro-2-deoxygalactose by normal liver tissue

O=CC[C@@H](O)[C@H](O)[C@H](O)CO [2-DG, 2-Deoxy-D-glucose, reference compound]
inhibition of glycolysis [1]: inhibit glycolysis
tumor growth in animal models (tumor; Sokoloff 1955, Ball 1957): retard tumor growth
survival time (tumor): modest prolongation of survival time
tumor growth (tumor): inhibition of tumor growth

O=CC[C@@H](O)[C@@H](O)[C@H](O)CO [2-DGal, 2-Deoxy-D-galactose]
growth of hepatocellular carcinoma cell lines [2]: inhibits the growth
tumor growth delay [3]: delays tumor growth significantly more than treatment with cisplatin alone
inhibition of glycolysis [1]: inhibit glycolysis
survival time (tumor): modest prolongation of survival time
tumor growth (tumor): inhibition of tumor growth
efficacy relative to 2-DG (tumor; model systems of Laszlo et al. 1960): less efficacious

O=C[C@H](F)[C@@H](O)[C@@H](O)[C@H](O)CO [2-Fluoro-2-deoxygalactose, 2-fluoro-2-deoxy-D-galactose]
concentration of transaminases (CD 1 mice; CD1 mice, intraperitoneally): increases in concentration of transaminases
Alt (alanine aminotransferase) (CD 1 mice; Group 2, 10% 2-Fluoro-2-deoxygalactose intraperitoneally): 109 U/L and 73 U/L and 72 U/L
Ast (aspartate aminotransferase) (CD 1 mice; Group 2, 10% intraperitoneally): 234 U/L and 114 U/L and 118 U/L
Tbili (total bilirubin) (CD 1 mice; Group 2, 10% intraperitoneally): 0.2 mg/dL (2×) and 0.3 mg/dL
Alt (alanine aminotransferase) (CD 1 mice; Group 3, 10% 2-Fluoro-2-deoxygalactose intravenously): 45 U/L and 124 U/L and 30 U/L
Ast (aspartate aminotransferase) (CD 1 mice; Group 3, 10% intravenously): 112 U/L and 116 U/L and 52 U/L
Tbili (total bilirubin) (CD 1 mice; Group 3, 10% intravenously): 0.2 mg/dL (2×) and 0.1 mg/dL
gross pathology finding (CD 1 mice; intraperitoneal administered group): gross pathology finding of a single animal
rise in ALT and AST over normal animals (CD 1 mice; intraperitoneal group, versus the two expected controls of Group 1): 2-3 ×
unscheduled deaths (CD 1 mice; intraperitoneal or intravenous single injection, CD 1 mice): no unscheduled deaths
test article related clinical findings (CD 1 mice; intraperitoneal or intravenous single injection, clinical observations at least once daily): no adverse test article related clinical findings
elevated enzymes (ALT, AST) (CD 1 mice; intravenous group, at 24 hours): one animal with elevated enzymes at 24 hours and two that has returned to normal

O=C[C@H](O)[C@@H](O)[C@@H](O)[C@H](O)CO [galactose]
inhibition of uptake of 2-Fluoro-2-deoxygalactose (normal liver tissue): markedly inhibits the uptake
